# Source: PubChem BioAssay (NCI)
#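 How tested: cells in 96-well plates exposed to compound for 48 hours at five concentrations. GI50 is the concentration that inhibits growth by half. Definition used: TGI = concentration required for complete inhibition of growth.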
# How the values were obtained:
# Assay in all cases: inhibition of tumour cell growth, NCI panel, 48 h
# 786-0 renal = test system: 786-0 renal
# A498 renal = test system: A498 renal
# A549 NSCLC = test system: A549 NSCLC
# ACHN renal = test system: ACHN renal
# BT-549 breast = test system: BT-549 breast
# CAKI-1 renal = test system: CAKI-1 renal
# CCRF-CEM leukemia = test system: CCRF-CEM leukemia
# COLO 205 colon = test system: COLO 205 colon
# DU-145 prostate = test system: DU-145 prostate
# EKVX NSCLC = test system: EKVX NSCLC
# HCC-2998 colon = test system: HCC-2998 colon
# HCT-116 colon = test system: HCT-116 colon
# HCT-15 colon = test system: HCT-15 colon
# HL-60(TB) leukemia = test system: HL-60(TB) leukemia
# HOP-62 NSCLC = test system: HOP-62 NSCLC
# HOP-92 NSCLC = test system: HOP-92 NSCLC
# HS 578T breast = test system: HS 578T breast
# HT29 colon = test system: HT29 colon
# IGROV1 ovarian = test system: IGROV1 ovarian
# K-562 leukemia = test system: K-562 leukemia
# KM12 colon = test system: KM12 colon
# LOX IMVI melanoma = test system: LOX IMVI melanoma
# M14 melanoma = test system: M14 melanoma
# MALME-3M melanoma = test system: MALME-3M melanoma
# MCF7 breast = test system: MCF7 breast
# MDA-MB-231 breast = test system: MDA-MB-231 breast
# MDA-MB-435 = test system: MDA-MB-435
# MDA-MB-468 breast = test system: MDA-MB-468 breast
# MOLT-4 leukemia = test system: MOLT-4 leukemia
# NCI-H226 lung = test system: NCI-H226 lung
# NCI-H23 lung = test system: NCI-H23 lung
# NCI-H460 lung = test system: NCI-H460 lung
# NCI-H522 lung = test system: NCI-H522 lung
# NCI/ADR-RES ovarian = test system: NCI/ADR-RES ovarian
# OVCAR-3 ovarian = test system: OVCAR-3 ovarian
# OVCAR-4 ovarian = test system: OVCAR-4 ovarian
# OVCAR-5 ovarian = test system: OVCAR-5 ovarian
# OVCAR-8 ovarian = test system: OVCAR-8 ovarian
# PC-3 prostate = test system: PC-3 prostate
# RPMI-8226 leukemia = test system: RPMI-8226 leukemia
# RXF 393 renal = test system: RXF 393 renal
# SF-268 CNS = test system: SF-268 CNS
# SF-295 CNS = test system: SF-295 CNS
# SF-539 CNS = test system: SF-539 CNS
# SK-MEL-2 melanoma = test system: SK-MEL-2 melanoma
# SK-MEL-28 melanoma = test system: SK-MEL-28 melanoma
# SK-MEL-5 melanoma = test system: SK-MEL-5 melanoma
# SK-OV-3 ovarian = test system: SK-OV-3 ovarian
# SN12C renal = test system: SN12C renal
# SNB-19 CNS = test system: SNB-19 CNS
# SNB-75 CNS = test system: SNB-75 CNS
# SR leukemia = test system: SR leukemia
# SW-620 colon = test system: SW-620 colon
# T-47D breast = test system: T-47D breast
# TK-10 renal = test system: TK-10 renal
# U251 CNS = test system: U251 CNS
# UACC-257 melanoma = test system: UACC-257 melanoma
# UACC-62 melanoma = test system: UACC-62 melanoma
# UO-31 renal = test system: UO-31 renal
structure (smiles),measurement,setting,value
COc1ccc(Nc2nc(N)n(Cc3cccc(Br)c3)n2)cc1,GI50,786-0 renal,34.3 µM
same,TGI,786-0 renal,> 100 µM
same,GI50,A498 renal,15.9 µM
same,TGI,A498 renal,76.4 µM
same,GI50,A549 NSCLC,36 µM
same,TGI,A549 NSCLC,> 100 µM
same,GI50,ACHN renal,29.7 µM
same,TGI,ACHN renal,> 100 µM
same,GI50,BT-549 breast,14.5 µM
same,TGI,BT-549 breast,> 100 µM
same,GI50,CAKI-1 renal,15 µM
same,TGI,CAKI-1 renal,> 100 µM
same,GI50,CCRF-CEM leukemia,26.3 µM
same,TGI,CCRF-CEM leukemia,> 100 µM
same,GI50,COLO 205 colon,48.4 µM
same,TGI,COLO 205 colon,> 100 µM
same,GI50,DU-145 prostate,65.6 µM
same,TGI,DU-145 prostate,> 100 µM
same,GI50,EKVX NSCLC,18 µM
same,TGI,EKVX NSCLC,> 100 µM
same,GI50,HCC-2998 colon,34.3 µM
same,TGI,HCC-2998 colon,> 100 µM
same,GI50,HCT-116 colon,27.5 µM
same,TGI,HCT-116 colon,> 100 µM
same,GI50,HCT-15 colon,30.8 µM
same,TGI,HCT-15 colon,> 100 µM
same,GI50,HL-60(TB) leukemia,18.4 µM
same,TGI,HL-60(TB) leukemia,> 100 µM
same,GI50,HOP-62 NSCLC,> 100 µM
same,TGI,HOP-62 NSCLC,> 100 µM
same,GI50,HOP-92 NSCLC,11.4 µM
same,TGI,HOP-92 NSCLC,68.4 µM
same,GI50,HS 578T breast,15.4 µM
same,TGI,HS 578T breast,> 100 µM
same,GI50,HT29 colon,64.2 µM
same,TGI,HT29 colon,> 100 µM
same,GI50,IGROV1 ovarian,26.1 µM
same,TGI,IGROV1 ovarian,> 100 µM
same,GI50,K-562 leukemia,28.7 µM
same,TGI,K-562 leukemia,> 100 µM
same,GI50,KM12 colon,26.7 µM
same,TGI,KM12 colon,> 100 µM
same,GI50,LOX IMVI melanoma,31.5 µM
same,TGI,LOX IMVI melanoma,> 100 µM
same,GI50,M14 melanoma,36.8 µM
same,TGI,M14 melanoma,> 100 µM
same,GI50,MALME-3M melanoma,27.2 µM
same,TGI,MALME-3M melanoma,> 100 µM
same,GI50,MCF7 breast,26 µM
same,TGI,MCF7 breast,> 100 µM
same,GI50,MDA-MB-231 breast,37.1 µM
same,TGI,MDA-MB-231 breast,> 100 µM
same,GI50,MDA-MB-435,32.8 µM
same,TGI,MDA-MB-435,> 100 µM
same,GI50,MDA-MB-468 breast,19.3 µM
same,TGI,MDA-MB-468 breast,65.5 µM
same,GI50,MOLT-4 leukemia,26.9 µM
same,TGI,MOLT-4 leukemia,> 100 µM
same,GI50,NCI-H226 lung,27.2 µM
same,TGI,NCI-H226 lung,> 100 µM
same,GI50,NCI-H23 lung,32.7 µM
same,TGI,NCI-H23 lung,> 100 µM
same,GI50,NCI-H460 lung,36.2 µM
same,TGI,NCI-H460 lung,> 100 µM
same,GI50,NCI-H522 lung,26.5 µM
same,TGI,NCI-H522 lung,> 100 µM
same,GI50,NCI/ADR-RES ovarian,33.3 µM
same,TGI,NCI/ADR-RES ovarian,> 100 µM
same,GI50,OVCAR-3 ovarian,35.8 µM
same,TGI,OVCAR-3 ovarian,> 100 µM
same,GI50,OVCAR-4 ovarian,31.7 µM
same,TGI,OVCAR-4 ovarian,> 100 µM
same,GI50,OVCAR-5 ovarian,50.3 µM
same,TGI,OVCAR-5 ovarian,> 100 µM
same,GI50,OVCAR-8 ovarian,42.1 µM
same,TGI,OVCAR-8 ovarian,> 100 µM
same,GI50,PC-3 prostate,25.9 µM
same,TGI,PC-3 prostate,> 100 µM
same,GI50,RPMI-8226 leukemia,29.5 µM
same,TGI,RPMI-8226 leukemia,> 100 µM
same,GI50,RXF 393 renal,14.3 µM
same,TGI,RXF 393 renal,66 µM
same,GI50,SF-268 CNS,27.2 µM
same,TGI,SF-268 CNS,> 100 µM
same,GI50,SF-295 CNS,28 µM
same,TGI,SF-295 CNS,> 100 µM
same,GI50,SF-539 CNS,29.6 µM
same,TGI,SF-539 CNS,> 100 µM
same,GI50,SK-MEL-2 melanoma,31.1 µM
same,TGI,SK-MEL-2 melanoma,> 100 µM
same,GI50,SK-MEL-28 melanoma,35.7 µM
same,TGI,SK-MEL-28 melanoma,> 100 µM
same,GI50,SK-MEL-5 melanoma,19.5 µM
same,TGI,SK-MEL-5 melanoma,44 µM
same,GI50,SK-OV-3 ovarian,93.2 µM
same,TGI,SK-OV-3 ovarian,> 100 µM
same,GI50,SN12C renal,33.4 µM
same,TGI,SN12C renal,> 100 µM
same,GI50,SNB-19 CNS,48.3 µM
same,TGI,SNB-19 CNS,> 100 µM
same,GI50,SNB-75 CNS,13.9 µM
same,TGI,SNB-75 CNS,> 100 µM
same,GI50,SR leukemia,91.7 µM
same,TGI,SR leukemia,> 100 µM
same,GI50,SW-620 colon,57.5 µM
same,TGI,SW-620 colon,> 100 µM
same,GI50,T-47D breast,44.5 µM
same,TGI,T-47D breast,> 100 µM
same,GI50,TK-10 renal,61.7 µM
same,TGI,TK-10 renal,> 100 µM
same,GI50,U251 CNS,42.1 µM
same,TGI,U251 CNS,> 100 µM
same,GI50,UACC-257 melanoma,38.3 µM
same,TGI,UACC-257 melanoma,> 100 µM
same,GI50,UACC-62 melanoma,32.8 µM
same,TGI,UACC-62 melanoma,> 100 µM
same,GI50,UO-31 renal,17 µM
same,TGI,UO-31 renal,> 100 µM
